Measurements from patent publication US11661403B2, “Oxadiazole compounds” (Vivace Therapeutics, Inc., priority 2018, dated 2023).

tested on: 8XTBD luciferase reporter (YAP) in HEK293T cells; test: YAP Reporter Assay; assay type: cell-based; conditions: Homo sapiens, HEK-293T, 24 h, read-out: Firefly Luciferase IC50 (μM)

Structure (SMILES)	IC50 [µM]
O=C1N[C@@H](c2nnc(-c3ccccc3Nc3ccc(C(F)(F)F)cc3)o2)CO1 [Compound 77, (R)-4-(5-(2-((4-(trifluoromethyl)phenyl)amino)phenyl)-1,3,4-oxadiazol-2-yl)oxazolidin-2-one]	< 0.1
CN(C)C(=O)c1nnc(-c2ccccc2Nc2ccc(C(F)(F)F)cc2)o1 [Compound 194, N,N-dimethyl-5-(2-((4-(trifluoromethyl)phenyl)amino)phenyl)-1,3,4-oxadiazole-2-carboxamide]	1 to 5
O=C1N[C@H](c2nnc(-c3ccccc3Nc3ccc(C(F)(F)F)cc3)o2)CO1 [Compound 78, (S)-4-(5-(2-((4-(trifluoromethyl)phenyl)amino)phenyl)-1,3,4-oxadiazol-2-yl)oxazolidin-2-one]	0.1 to 1

same assay, conditions: Homo sapiens, HEK-293T; HEK293T cells stably transfected with 8XTBD luciferase reporter and pRLTK; 24-hr incubation; top concentration 3 μM; read-out: Firefly Luciferase IC50

Structure (SMILES)	IC50 [µM]
FC(F)(F)c1ccc(Nc2ccccc2-c2nnc(-c3cocn3)o2)cc1 [Compound 36, 2-(5-(oxazol-4-yl)-1,3,4-oxadiazol-2-yl)-N-(4-(trifluoromethyl)phenyl)aniline]	0.1 to 1
N#CCCc1nnc(-c2ccccc2Nc2ccc(C(F)(F)F)cc2)o1 [Compound 126, 3-(5-(2-((4-(trifluoromethyl)phenyl)amino)phenyl)-1,3,4-oxadiazol-2-yl)propanenitrile]	0.1 to 1
C#CCCNC(=O)c1nnc(-c2ccccc2Nc2ccc(C(F)(F)F)cc2)o1 [Compound 115, N-(but-3-yn-1-yl)-5-(2-((4-(trifluoromethyl)phenyl)amino)phenyl)-1,3,4-oxadiazole-2-carboxamide]	< 0.1
FC(F)(F)c1ccc(Nc2ccccc2-c2nnc(-c3cnco3)o2)cc1 [Compound 37, 2-(5-(oxazol-5-yl)-1,3,4-oxadiazol-2-yl)-N-(4-(trifluoromethyl)phenyl)aniline]	0.1 to 1
NC1(Cc2nnc(-c3ccccc3Nc3ccc(C(F)(F)F)cc3)o2)CC1 [Compound 136, 2-(5-((1-aminocyclopropyl)methyl)-1,3,4-oxadiazol-2-yl)-N-(4-(trifluoromethyl)phenyl)aniline]	0.1 to 1
CC(C)(C#N)Cc1nnc(-c2ccccc2Nc2ccc(C(F)(F)F)cc2)o1 [Compound 89, 2,2-dimethyl-3-(5-(2-((4-(trifluoromethyl)phenyl)amino)phenyl)-1,3,4-oxadiazol-2-yl)propanenitrile]	0.1 to 1
CN(C#N)C(C)(C)Cc1nnc(-c2ccccc2Nc2ccc(C(F)(F)F)cc2)o1 [Compound 143, N-methyl-N-(2-methyl-1-(5-(2-((4-(trifluoromethyl)phenyl)amino)phenyl)-1,3,4-oxadiazol-2-yl)propan-2-yl)cyanamide]	1 to 5
NCCc1nnc(-c2ccccc2Nc2ccc(C(F)(F)F)cc2)o1 [Compound 104, 2-(5-(2-aminoethyl)-1,3,4-oxadiazol-2-yl)-N-(4-(trifluoromethyl)phenyl)aniline]	1 to 5
O=C(NCCO)c1nnc(-c2ccccc2Nc2ccc(C(F)(F)F)cc2)o1 [Compound 191, N-(2-hydroxyethyl)-5-(2-((4-(trifluoromethyl)phenyl)amino)phenyl)-1,3,4-oxadiazole-2-carboxamide]	< 0.1
CNC(C)c1nnc(-c2ccccc2Nc2ccc(C(F)(F)F)cc2)o1 (stereo not drawn) [Compound 159, 2-(5-(1-(methylamino)ethyl)-1,3,4-oxadiazol-2-yl)-N-(4-(trifluoromethyl)phenyl)aniline]	0.1 to 1
O=C(O)Cc1nnc(-c2ccccc2Nc2ccc(C(F)(F)F)cc2)o1 [Compound 119, 2-(5-(2-((4-(trifluoromethyl)phenyl)amino)phenyl)-1,3,4-oxadiazol-2-yl)acetic acid]	0.1 to 1
O=C1NC(c2nnc(-c3ccccc3Nc3ccc(C(F)(F)F)cc3)o2)CO1 (stereo not drawn) [Compound 17, 4-(5-(2-((4-(trifluoromethyl)phenyl)amino)phenyl)-1,3,4-oxadiazol-2-yl)oxazolidin-2-one]	< 0.1
CC(O)(CN)c1nnc(-c2ccccc2Nc2ccc(C(F)(F)F)cc2)o1 (stereo not drawn) [Compound 134, 1-amino-2-(5-(2-((4-(trifluoromethyl)phenyl)amino)phenyl)-1,3,4-oxadiazol-2-yl)propan-2-ol]	0.1 to 1
CN(C#N)Cc1nnc(-c2ccccc2Nc2ccc(C(F)(F)F)cc2)o1 [Compound 168, N-methyl-N-((5-(2-((4-(trifluoromethyl)phenyl)amino)phenyl)-1,3,4-oxadiazol-2-yl)methyl)cyanamide]	< 0.1
C[C@@]1(c2nnc(-c3ccccc3Nc3ccc(C(F)(F)F)cc3)o2)CCNC1=O [Compound 75, (S)-3-methyl-3-(5-(2-((4-(trifluoromethyl)phenyl)amino)phenyl)-1,3,4-oxadiazol-2-yl)pyrrolidin-2-one]	< 0.1
CCNCc1nnc(-c2ccccc2Nc2ccc(C(F)(F)F)cc2)o1 [Compound 100, 2-(5-((ethylamino)methyl)-1,3,4-oxadiazol-2-yl)-N-(4-(trifluoromethyl)phenyl)aniline]	0.1 to 1

Structure (SMILES)	IC50 [µM]
C#CC(C)(C)c1nnc(-c2ccccc2Nc2ccc(C(F)(F)F)cc2)o1 [Compound 68, 2-(5-(2-methylbut-3-yn-2-yl)-1,3,4-oxadiazol-2-yl)-N-(4-(trifluoromethyl)phenyl)aniline]	< 0.1
CCN(C#N)CCc1nnc(-c2ccccc2Nc2ccc(C(F)(F)F)cc2)o1 [Compound 96, N-ethyl-N-(2-(5-(2-((4-(trifluoromethyl)phenyl)amino)phenyl)-1,3,4-oxadiazol-2-yl)ethyl)cyanamide]	< 0.1
CC1(c2nnc(-c3ccccc3Nc3ccc(C(F)(F)F)cc3)o2)CCO1 (stereo not drawn) [Compound 180, 2-(5-(2-methyloxetan-2-yl)-1,3,4-oxadiazol-2-yl)-N-(4-(trifluoromethyl)phenyl)aniline]	< 0.1
NC(=O)C1(c2nnc(-c3ccccc3Nc3ccc(C(F)(F)F)cc3)o2)CC1 [Compound 187, 1-(5-(2-((4-(trifluoromethyl)phenyl)amino)phenyl)-1,3,4-oxadiazol-2-yl)cyclopropane-1-carboxamide]	< 0.1
NC1(c2nnc(-c3ccccc3Nc3ccc(C(F)(F)F)cc3)o2)CC1 [Compound 58, 2-(5-(1-aminocyclopropyl)-1,3,4-oxadiazol-2-yl)-N-(4-(trifluoromethyl)phenyl) aniline]	0.1 to 1
FC(F)(F)c1ccc(Nc2ccccc2-c2nnc(C3CO3)o2)cc1 (stereo not drawn) [Compound 122, 2-(5-(oxiran-2-yl)-1,3,4-oxadiazol-2-yl)-N-(4-(trifluoromethyl)phenyl)aniline]	< 0.1
NC(CO)c1nnc(-c2ccccc2Nc2ccc(C(F)(F)F)cc2)o1 (stereo not drawn) [Compound 30, 2-amino-2-(5-(2-((4-(trifluoromethyl)phenyl)amino)phenyl)-1,3,4-oxadiazol-2-yl)ethanol]	0.1 to 1
FC(F)(F)c1ccc(Nc2ccccc2-c2nnc(-c3nn[nH]n3)o2)cc1 [Compound 48, 2-[5-(2H-tetrazol-5-yl)-1,3,4-oxadiazol-2-yl]-N-[4-(trifluoromethyl)phenyl]aniline]	1 to 5
C#CC(O)Cc1nnc(-c2ccccc2Nc2ccc(C(F)(F)F)cc2)o1 (stereo not drawn) [Compound 120, 1-(5-(2-((4-(trifluoromethyl)phenyl)amino)phenyl)-1,3,4-oxadiazol-2-yl)but-3-yn-2-ol]	< 0.1
CNCC(C)(C)c1nnc(-c2ccccc2Nc2ccc(C(F)(F)F)cc2)o1 [Compound 144, 2-(5-(2-methyl-1-(methylamino)propan-2-yl)-1,3,4-oxadiazol-2-yl)-N-(4-(trifluoromethyl)phenyl)aniline]	0.1 to 1
COC(=O)c1nnc(-c2ccccc2Nc2ccc(C(F)(F)F)cc2)o1 [Compound 8, methyl 5-(2-((4-(trifluoromethyl)phenyl)amino)phenyl)-1,3,4-oxadiazole-2-carboxylate]	0.1 to 1
N#CC1(c2nnc(-c3ccccc3Nc3ccc(C(F)(F)F)cc3)o2)CC1 [Compound 184, 1-(5-(2-((4-(trifluoromethyl)phenyl)amino)phenyl)-1,3,4-oxadiazol-2-yl)cyclopropane-1-carbonitrile]	< 0.1
OCC(O)(CO)c1nnc(-c2ccccc2Nc2ccc(C(F)(F)F)cc2)o1 [Compound 201, 2-(5-(2-((4-(trifluoromethyl)phenyl)amino)phenyl)-1,3,4-oxadiazol-2-yl)propane-1,2,3-triol]	< 0.1
CN(Cc1nnc(-c2ccccc2Nc2ccc(C(F)(F)F)cc2)o1)C(=O)OC(C)(C)C [Compound 167, Tert-Butyl Methyl((5-(2-((4-(trifluoromethyl)phenyl)amino)phenyl)-1,3,4-oxadiazol-2-yl)methyl)carbamate]	1 to 5
Cc1ccc(S(=O)(=O)OC(c2nnc(-c3ccccc3Nc3ccc(C(F)(F)F)cc3)o2)C(F)(F)F)cc1 (stereo not drawn) [Compound 46, 2,2,2-trifluoro-1-(5-(2-((4-(trifluoromethyl)phenyl)amino)phenyl)-1,3,4-oxadiazol-2-yl)ethyl 4-methylbenzenesulfonate]	0.1 to 1

same assay, conditions: Homo sapiens, HEK-293T; […]; 24-hr incubation; top concentration 3 μM; read-out: Firefly Luciferase IC50

Structure (SMILES)	IC50 [µM]
CC(C)(C(=O)NCC#N)c1nnc(-c2ccccc2Nc2ccc(C(F)(F)F)cc2)o1 [Compound 110, N-(cyanomethyl)-2-methyl-2-(5-(2-((4-(trifluoromethyl)phenyl)amino)phenyl)-1,3,4-oxadiazol-2-yl)propanamide]	1 to 5
OC(c1nnc(-c2ccccc2Nc2ccc(C(F)(F)F)cc2)o1)C1CC1 (stereo not drawn) [Compound 49, cyclopropyl(5-(2-((4-(trifluoromethyl)phenyl)amino)phenyl)-1,3,4-oxadiazol-2-yl)methanol]	< 0.1
CCNC(=O)c1nnc(-c2ccccc2Nc2ccc(C(F)(F)F)cc2)o1 [Compound 197, N-ethyl-5-(2-((4-(trifluoromethyl)phenyl)amino)phenyl)-1,3,4-oxadiazole-2-carboxamide]	< 0.1
N#CCCNC(=O)c1nnc(-c2ccccc2Nc2ccc(C(F)(F)F)cc2)o1 [Compound 113, N-(2-cyanoethyl)-5-(2-((4-(trifluoromethyl)phenyl)amino)phenyl)-1,3,4-oxadiazole-2-carboxamide]	< 0.1
OC1(c2nnc(-c3ccccc3Nc3ccc(C(F)(F)F)cc3)o2)CCC1 [Compound 54, 1-(5-(2-((4-(trifluoromethyl)phenyl)amino)phenyl)-1,3,4-oxadiazol-2-yl)cyclo butanol]	< 0.1
